Test results reported in US4626283A, “Corrosion and marine growth inhibiting compositions” (Engelhard Corporation, priority 1985, dated 1986).
Several values for one entry are separate records, joined by “and”; a condition that tells them apart may be missing. Identical values can stand only once. Like-named read-outs stand apart in the source and are kept apart here.

Tests used:
Draize eye irritation = format: in vivo; conditions: 100 mg; for Eye irritation rating: in words
[1] = Electrochemical testing (Tafel Plot) of corrosion current and corrosion potential
Primary skin irritation = format: in vivo; conditions: 0.5 g in saline paste; for Skin irritation rating: in words
[2] = water
[3] = Salt spray test, alkyd formulations (Example V, FIG. 1)
[4] = overall conclusion in words
[5] = format: physicochemical; conditions: simulated rain solution saturated with the pigment; electrolyte pH about 4.2
Acute oral toxicity = format: in vivo; conditions: 5 g/kg in corn oil
[6] = Salt spray test, alkyd formulations (Example VI, FIG. 3); conditions: alkyd formulation, ASTM B117-73, in words
Procedure: One coat of paint was applied using a Henry K. Gardner Laboratory draw-down, with either a 6 mil or 8 mil draw-down blade. The draw-down speed was 1 inch per second. Such coat of paint was allowed to cure for two weeks under ambient conditions, in the case of both alkyd and latex paints. The dried coating thickness was measured with Elcometer Coating thickness gauge, Model #150/-FNIE. Acceptable thicknesses of the cured film were 2.5-3.5 mils.
Stormer viscosity (ASTM D562-55) for all alkyd paints was greater than 90, and for all latex paints was greater than 80.

[7] = Tafel Plot, simulated acid rain saturated with pigment, SAE-1020 steel, 5.16 square centimeters
[8] = against saturated calomel electrode, simulated acid rain saturated with pigment

Zinc Sulfonyldiphenolate Ethylenediamine [Compound 15]
Eye irritation score (Draize eye irritation): 31.0 | Eye irritation rating (Draize eye irritation): severely irritating | Corrosion current (Icorr) [1]: 170 microamps and > 100 microamps | Corrosion potential (Ecorr) [1]: -592 millovolts | Skin irritation score (Primary skin irritation): 0.08 | Skin irritation rating (Primary skin irritation): non-irritating

Zinc Dibasate Piperidine [Compound 24]
Corrosion current (Icorr) [1]: 40 microamps | Corrosion potential (Ecorr) [1]: -610 millovolts

NCCN.O=C([O-])CCCC(=O)[O-].[Zn+2] [Compound 2, Zinc Glutarate Ethylenediamine]
Solubility [2]: .16 | Solubility description [2]: SS (key: PINS: practically insoluble (<.1 g/100cc H2 O); SS: slightly soluble (.1 to 1 g/100cc H2 O); MS: moderately soluble)

Zinc Thiodiphenolate Ethylenediamine [Compound 14]
Eye irritation score (Draize eye irritation): 53.7 | Eye irritation rating (Draize eye irritation): extremely irritating | Effect of kaolin on salt spray performance [3]: enhanced the performance | Corrosion current (Icorr) [1]: 52.5 microamps | Corrosion potential (Ecorr) [1]: -570 millovolts | Toxicity characteristics [4]: unacceptable toxicity characteristics

NCCN.O=C([O-])c1ccccc1C(=O)[O-].[Zn+2] [Compound 17, Zinc Phthalate Ethylenediamine]
Corrosion current (Icorr) [1]: 83 microamps | Solubility [2]: .02 | Solubility description [2]: PINS (key: PINS: practically insoluble (<.1 g/100cc H2 O); SS: slightly soluble (.1 to 1 g/100cc H2 O); MS: moderately soluble) | Skin irritation score (Primary skin irritation): 0.00 | Skin irritation rating (Primary skin irritation): non-irritating

Zinc Dibasate Pyridine [Compound 23]
Corrosion current (Icorr) [1, 7]: 60 microamps | Corrosion potential (Ecorr) [1, 8]: -550 millovolts | pH [5]: 7.0

Zinc Dibasate Diethylamine [Compound 9]
Oral acute toxicity, mortality (Acute oral toxicity): 0% | Eye irritation score (Draize eye irritation): 5.5 | Eye irritation rating (Draize eye irritation): mildly irritating | Corrosion current (Icorr) [1]: 30 microamps | Corrosion current (Icorr), second test [1]: 177 microamps and > 100 microamps | Corrosion potential (Ecorr) [1]: -570 millovolts

NCCN.O=C([O-])c1cccc(C(=O)[O-])c1.[Zn+2] [Compound 18, Zinc Isophthalate Ethylenediamine]
Salt spray durability, comparison [6]: superior to "Zinc Yellow" (zinc chromate) in salt spray durability | Solubility [2]: 1.13

NCCN.O=C([O-])c1ccc(C(=O)[O-])cc1.[Zn+2] [Compound 19, Zinc Terephthalate Ethylenediamine]
Solubility [2]: .66 | Solubility description [2]: SS (key: PINS: practically insoluble (<.1 g/100cc H2 O); SS: slightly soluble (.1 to 1 g/100cc H2 O); MS: moderately soluble)

O=C([O-])CCCCCCCCCCC(=O)[O-].OCCN(CCO)CCO.[Zn+2] [Compound 10, Zinc Dibasate Triethanolamine]
Salt spray durability, comparison [6]: superior to "Zinc Yellow" (zinc chromate) in salt spray durability | Corrosion current (Icorr) [1]: 93 microamps | Corrosion potential (Ecorr) [1]: -580 millovolts

NCCN.O=C([O-])CCCCC(=O)[O-].[Zn+2] [Compound 3, Zinc Adipate Ethylenediamine]
mortality (Acute oral toxicity; in vivo, 5000 mg/kg): 0% | Salt spray durability, comparison [6]: superior to "Zinc Yellow" (zinc chromate) in salt spray durability | Eye irritation score (Draize eye irritation): 19.0 | Eye irritation rating (Draize eye irritation): moderately-irritating | Corrosion current (Icorr) [1, 7]: 78 microamps | Skin irritation score (Primary skin irritation): 0.42 | Skin irritation rating (Primary skin irritation): minimally irritating

Zinc Thiodiphenolate Propylenediamine [Compound 20]
Corrosion current (Icorr) [1]: 46 microamps | Corrosion potential (Ecorr) [1]: -560 millovolts

Zinc Dibasate-1,2-Diaminopropane [8^(3)]
Corrosion current (Icorr) [1, 7]: 90 microamps | Corrosion potential (Ecorr) [1, 8]: -570 millovolts | pH [5]: 7.55

Zinc Quinizarinate Ethylenediamine [Compound 22]
Corrosion current (Icorr) [1, 7]: 84 microamps | Corrosion potential (Ecorr) [1, 8]: -570 millovolts

Zinc Dibasate Propylenediamine [Compound 8]
Solubility [2]: .16 | Solubility description [2]: SS (key: PINS: practically insoluble (<.1 g/100cc H2 O); SS: slightly soluble (.1 to 1 g/100cc H2 O); MS: moderately soluble)

Zinc Dibasate Dimethylamine [Compound 21]
Corrosion current (Icorr) [1]: 82 microamps | Corrosion potential (Ecorr) [1]: -610 millovolts

NCCN.O=C([O-])CCCCCCCC(=O)[O-].[Zn+2] [Compound 5, Zinc Azelate Ethylenediamine]
Effect of kaolin on salt spray performance ([3]; alkyd formulation, combination with kaolin, in words): anomolously reduced the performance | Corrosion current (Icorr) [1, 7]: 82 microamps | Corrosion potential (Ecorr) [1, 8]: -667 millovolts | Solubility [2]: .21 | Solubility description [2]: SS (key: PINS: practically insoluble (<.1 g/100cc H2 O); SS: slightly soluble (.1 to 1 g/100cc H2 O); MS: moderately soluble)

CC(N)CN.O=C([O-])CCCCC(=O)[O-].[Zn+2] [Compound 4, Zinc Adipate Propylenediamine]
Salt spray durability, comparison [6]: superior to "Zinc Yellow" (zinc chromate) in salt spray durability

NCCN.O=C([O-])CCCCCCCCC(=O)[O-].[Zn+2] [Compound 6, Zinc Sebacate Ethylenediamine]
Eye irritation score (Draize eye irritation): 37.2 | Eye irritation rating (Draize eye irritation): severely irritating | Corrosion current (Icorr) [1]: 170 microamps and > 100 microamps | Corrosion potential (Ecorr) [1]: -462 millovolts | Skin irritation score (Primary skin irritation): 0.13 | Skin irritation rating (Primary skin irritation): minimally irritating

NCCN.O=C([O-])CCCCCCCCCCC(=O)[O-].[Zn+2] [Compound 11, Zinc Dodecanedioate Ethylenediamine]
Salt spray durability, comparison [6]: superior to "Zinc Yellow" (zinc chromate) in salt spray durability | Corrosion current (Icorr) [1, 7]: 130 microamps and > 100 microamps | Solubility [2]: .015 | Solubility description [2]: PINS (key: PINS: practically insoluble (<.1 g/100cc H2 O); SS: slightly soluble (.1 to 1 g/100cc H2 O); MS: moderately soluble)

CCNCC.O=C([O-])CCCCCCCCCCC(=O)[O-].[Zn+2] [Compound 12, Zinc Dodecanedioate Diethylamine]
Corrosion current (Icorr) [1]: 197 microamps and > 100 microamps
